Test results taken from ChEMBL document CHEMBL5150044, “Macrocyclization of Quinazoline-Based EGFR Inhibitors Leads to Exclusive Mutant Selectivity for EGFR L858R and Del19” (J Med Chem, 2022).
Residue numbers refer to the chain shown, from its start. Converted amounts (≈) assume the structure as drawn. The source made the active and inactive calls. The calls are words filed in the database; no cut-off is given here.

Key:
[1] = biological target: Epidermal growth factor receptor (Homo sapiens, UniProt P00533, EX19DEL)
[2] = biological target: Epidermal growth factor receptor (Homo sapiens, UniProt P00533)
BaF3 [3] = experiment: cells; format: functional, cell-based; details: Mus musculus, BaF3, 72 h
Description: Antiproliferative activity against mouse BaF3 cells expressing Del19 assessed as cell viability measured after 72 hrs hrs by CellTiter Glo assay

BaF3 [4] = experiment: cells; format: functional, cell-based; details: Mus musculus, BaF3, 72 h; remark: listed apart in the source
BaF3 [5] = experiment: cells; format: functional, cell-based; details: Mus musculus, BaF3, 72 h; remark: listed apart in the source
BaF3 [6] = experiment: cells; format: functional, cell-based; details: Mus musculus, BaF3, 72 h; remark: listed apart in the source
BaF3 [7] = experiment: cells; details: Mus musculus, BaF3, 72 h
Description: Antiproliferative activity against mouse BaF3 cells expressing EGFR WT assessed as cell viability measured after 72 hrs hrs by CellTiter Glo assay

BaF3 [8] = experiment: cells; details: Mus musculus, BaF3, 72 h; remark: listed apart in the source
BaF3 [9] = experiment: cells; details: Mus musculus, BaF3, 72 h; remark: listed apart in the source
BaF3 [10] = experiment: cells; details: Mus musculus, BaF3, 72 h; remark: listed apart in the source
BaF3 [11] = experiment: cells; details: Mus musculus, BaF3, 72 h; remark: listed apart in the source
BaF3 [12] = experiment: cells; details: Mus musculus, BaF3, 72 h; remark: listed apart in the source
BaF3 [13] = experiment: cells; details: Mus musculus, BaF3, 72 h; remark: listed apart in the source
BaF3 [14] = experiment: cells; details: Mus musculus, BaF3, 72 h; remark: listed apart in the source
[15] = biological target: Epidermal growth factor receptor (Homo sapiens, UniProt P00533, L858R)
[16] = biological target: T1, Mitogen-activated protein kinase 1 and 3 (ERK2 and ERK1) (Mus musculus) (UniProt P63085+Q63844); experiment: Inhibition of ERK1/2 phosphorylation in mouse BaF3 cells harboring L858R mutant assessed as ERK1/2 phosphorylation at 10 to 1000 nM incubated for 8 hrs by Western blot analysis; format: cell-based; details: dose 10-1000 nM
[17] = biological target: T1, Mitogen-activated protein kinase 1 and 3 (ERK2 and ERK1) (Mus musculus); experiment: Inhibition of ERK1/2 phosphorylation in mouse BaF3 cells harboring Del19 mutant assessed as ERK1/2 phosphorylation at 10 to 1000 nM incubated for 8 hrs by Western blot analysis; format: cell-based; details: dose 10-1000 nM
[18] = biological target: T1, Mitogen-activated protein kinase 1 and 3 (ERK2 and ERK1) (Mus musculus); format: cell-based; details: BaF3, dose 10-1000 nM, time 8.0 hrs
[19] = biological target: T1, Mitogen-activated protein kinase 1 and 3 (ERK2 and ERK1) (Mus musculus); format: cell-based; details: BaF3, dose 10-1000 nM, time 8.0 hrs; remark: listed apart in the source
[20] = biological target: RAC-alpha serine/threonine-protein kinase (Mus musculus) (UniProt P31750); experiment: Inhibition of AKT phosphorylation in mouse BaF3 cells harboring L858R mutant assessed as […] phosphorylation at 10 to 1000 nM incubated for 8 hrs by Western blot analysis; format: cell-based; details: dose 10-1000 nM
[21] = biological target: RAC-alpha serine/threonine-protein kinase (Mus musculus) (UniProt P31750); experiment: Inhibition of AKT phosphorylation in mouse BaF3 cells harboring Del19 mutant assessed as […] phosphorylation at 10 to 1000 nM incubated for 8 hrs by Western blot analysis; format: cell-based; details: dose 10-1000 nM
[22] = biological target: RAC-alpha serine/threonine-protein kinase (Mus musculus) (UniProt P31750); format: cell-based; details: BaF3, dose 10-1000 nM, time 8.0 hrs
[23] = biological target: RAC-alpha serine/threonine-protein kinase (Mus musculus) (UniProt P31750); format: cell-based; details: BaF3, dose 10-1000 nM, time 8.0 hrs; remark: listed apart in the source
[24] = system: Epidermal growth factor receptor (Homo sapiens), P04626+P00533+Q15303+P21860 [L858R]; details: Mus musculus; BaF3; dose 10-1000 nM, time 8.0 hrs
BaF3 [25] = experiment: Inhibition of EGFR Del19 mutant in mouse BaF3 cells assessed as protein phosphorylation at 10 to 1000 nM incubated for 8 hrs by Western blot analysis; format: cell-based; details: dose 10-1000 nM
BaF3 [26] = format: cell-based; details: Mus musculus, dose 10-1000 nM, time 8.0 hrs
BaF3 [27] = format: cell-based; details: Mus musculus, dose 10-1000 nM, time 8.0 hrs; remark: listed apart in the source
[28] = Solubility in neutral aqueous solutions after 24 hrs by HPLC analysis; format: physicochemical
[29] = Solubility in 10% DMSO after 24 hrs by HPLC analysis; format: physicochemical
[30] = Solubility in 100% DMSO after 24 hrs by HPLC analysis; format: physicochemical
[31] = system: T2, Receptor-type tyrosine-protein kinase FLT3 (Homo sapiens), P36888 [D835V]; experiment: Inhibition of FLT3 D835V mutant (unknown origin) assessed as percent of control activity at 1 uM by radiometric protein kinase-reaction biology assay; values are per cent of control
T2 sequence (whole entry): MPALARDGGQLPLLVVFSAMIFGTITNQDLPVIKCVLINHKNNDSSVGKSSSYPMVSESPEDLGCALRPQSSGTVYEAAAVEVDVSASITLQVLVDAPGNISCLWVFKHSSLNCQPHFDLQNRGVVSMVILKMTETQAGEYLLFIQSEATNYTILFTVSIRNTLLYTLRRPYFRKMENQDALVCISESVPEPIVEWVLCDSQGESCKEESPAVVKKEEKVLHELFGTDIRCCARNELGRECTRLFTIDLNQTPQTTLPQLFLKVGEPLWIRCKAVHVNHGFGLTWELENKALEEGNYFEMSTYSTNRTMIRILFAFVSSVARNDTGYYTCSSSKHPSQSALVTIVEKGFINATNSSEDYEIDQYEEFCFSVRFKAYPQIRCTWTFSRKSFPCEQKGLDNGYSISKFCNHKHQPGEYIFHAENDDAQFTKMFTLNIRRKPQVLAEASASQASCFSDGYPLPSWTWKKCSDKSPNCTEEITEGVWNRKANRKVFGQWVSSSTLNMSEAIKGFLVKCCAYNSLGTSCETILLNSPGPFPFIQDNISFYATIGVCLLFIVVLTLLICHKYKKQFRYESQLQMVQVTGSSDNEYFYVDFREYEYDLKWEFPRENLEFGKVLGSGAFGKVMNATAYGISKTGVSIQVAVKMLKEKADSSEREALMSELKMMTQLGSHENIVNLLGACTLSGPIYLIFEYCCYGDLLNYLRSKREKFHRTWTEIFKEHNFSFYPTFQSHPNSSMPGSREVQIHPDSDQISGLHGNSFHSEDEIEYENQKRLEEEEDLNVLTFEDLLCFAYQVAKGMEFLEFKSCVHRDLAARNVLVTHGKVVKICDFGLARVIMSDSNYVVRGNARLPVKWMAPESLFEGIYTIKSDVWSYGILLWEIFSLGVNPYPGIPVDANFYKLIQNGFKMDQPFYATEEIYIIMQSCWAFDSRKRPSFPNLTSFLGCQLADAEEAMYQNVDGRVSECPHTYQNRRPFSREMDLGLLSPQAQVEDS

[32] = system: T3, Receptor-type tyrosine-protein kinase FLT3 (Homo sapiens), P36888 [D835Y]; experiment: Inhibition of FLT3 D835Y mutant (unknown origin) assessed as percent of control activity at 1 uM by radiometric protein kinase-reaction biology assay; values are per cent of control
T3 sequence (whole entry): T2 sequence (whole entry) with V835Y

Homo sapiens = species: Homo sapiens; experiment: Inhibition of EGFR […] mutant (unknown origin) assessed as percent of control activity at 1 uM by radiometric protein kinase-reaction biology assay; values are per cent of control
[33] = system: Receptor-type tyrosine-protein kinase FLT3 (Homo sapiens), P36888 [UNDEFINED MUTATION]; experiment: Inhibition of FLT3 ITD/D835V mutant (unknown origin) assessed as percent of control activity at 1 uM by radiometric protein kinase-reaction biology assay; values are per cent of control
[34] = biological target: Epidermal growth factor receptor (Homo sapiens, UniProt P00533, L858R/T790M)

Epidermal growth factor receptor (Homo sapiens, UniProt P00533, L858R), sequence (P00533 25-1210 L858R limits assumed): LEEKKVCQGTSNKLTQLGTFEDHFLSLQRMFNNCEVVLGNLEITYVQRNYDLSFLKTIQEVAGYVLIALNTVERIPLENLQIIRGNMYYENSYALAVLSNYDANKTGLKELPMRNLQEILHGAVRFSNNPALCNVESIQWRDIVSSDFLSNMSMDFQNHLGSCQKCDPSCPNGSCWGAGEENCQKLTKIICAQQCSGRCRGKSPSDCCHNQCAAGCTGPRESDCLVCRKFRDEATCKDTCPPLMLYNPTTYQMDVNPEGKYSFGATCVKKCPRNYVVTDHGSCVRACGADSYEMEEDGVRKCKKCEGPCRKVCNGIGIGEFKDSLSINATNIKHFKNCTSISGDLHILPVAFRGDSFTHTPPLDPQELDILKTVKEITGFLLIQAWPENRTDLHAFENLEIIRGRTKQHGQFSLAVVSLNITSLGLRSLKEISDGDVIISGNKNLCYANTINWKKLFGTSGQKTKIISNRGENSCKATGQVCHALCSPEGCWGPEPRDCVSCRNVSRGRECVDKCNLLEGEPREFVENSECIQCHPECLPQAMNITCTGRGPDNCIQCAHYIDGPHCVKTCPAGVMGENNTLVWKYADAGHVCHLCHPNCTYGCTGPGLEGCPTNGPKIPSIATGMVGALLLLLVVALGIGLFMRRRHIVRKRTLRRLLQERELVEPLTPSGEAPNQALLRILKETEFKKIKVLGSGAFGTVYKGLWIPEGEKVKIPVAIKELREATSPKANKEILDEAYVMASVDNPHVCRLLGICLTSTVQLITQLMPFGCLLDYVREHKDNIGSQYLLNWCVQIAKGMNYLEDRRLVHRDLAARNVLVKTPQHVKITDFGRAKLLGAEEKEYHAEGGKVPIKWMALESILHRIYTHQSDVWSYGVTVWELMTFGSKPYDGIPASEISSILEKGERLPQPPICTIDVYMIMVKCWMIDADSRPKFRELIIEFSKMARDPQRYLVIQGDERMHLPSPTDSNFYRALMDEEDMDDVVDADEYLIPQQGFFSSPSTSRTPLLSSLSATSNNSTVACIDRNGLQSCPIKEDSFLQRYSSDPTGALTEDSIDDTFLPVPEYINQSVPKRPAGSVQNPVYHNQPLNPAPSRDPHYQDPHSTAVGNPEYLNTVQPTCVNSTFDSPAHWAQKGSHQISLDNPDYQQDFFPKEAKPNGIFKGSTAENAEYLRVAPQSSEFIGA
Epidermal growth factor receptor (Homo sapiens, UniProt P00533, EX19DEL), sequence (P00533 whole entry, looked up, stated change not applied): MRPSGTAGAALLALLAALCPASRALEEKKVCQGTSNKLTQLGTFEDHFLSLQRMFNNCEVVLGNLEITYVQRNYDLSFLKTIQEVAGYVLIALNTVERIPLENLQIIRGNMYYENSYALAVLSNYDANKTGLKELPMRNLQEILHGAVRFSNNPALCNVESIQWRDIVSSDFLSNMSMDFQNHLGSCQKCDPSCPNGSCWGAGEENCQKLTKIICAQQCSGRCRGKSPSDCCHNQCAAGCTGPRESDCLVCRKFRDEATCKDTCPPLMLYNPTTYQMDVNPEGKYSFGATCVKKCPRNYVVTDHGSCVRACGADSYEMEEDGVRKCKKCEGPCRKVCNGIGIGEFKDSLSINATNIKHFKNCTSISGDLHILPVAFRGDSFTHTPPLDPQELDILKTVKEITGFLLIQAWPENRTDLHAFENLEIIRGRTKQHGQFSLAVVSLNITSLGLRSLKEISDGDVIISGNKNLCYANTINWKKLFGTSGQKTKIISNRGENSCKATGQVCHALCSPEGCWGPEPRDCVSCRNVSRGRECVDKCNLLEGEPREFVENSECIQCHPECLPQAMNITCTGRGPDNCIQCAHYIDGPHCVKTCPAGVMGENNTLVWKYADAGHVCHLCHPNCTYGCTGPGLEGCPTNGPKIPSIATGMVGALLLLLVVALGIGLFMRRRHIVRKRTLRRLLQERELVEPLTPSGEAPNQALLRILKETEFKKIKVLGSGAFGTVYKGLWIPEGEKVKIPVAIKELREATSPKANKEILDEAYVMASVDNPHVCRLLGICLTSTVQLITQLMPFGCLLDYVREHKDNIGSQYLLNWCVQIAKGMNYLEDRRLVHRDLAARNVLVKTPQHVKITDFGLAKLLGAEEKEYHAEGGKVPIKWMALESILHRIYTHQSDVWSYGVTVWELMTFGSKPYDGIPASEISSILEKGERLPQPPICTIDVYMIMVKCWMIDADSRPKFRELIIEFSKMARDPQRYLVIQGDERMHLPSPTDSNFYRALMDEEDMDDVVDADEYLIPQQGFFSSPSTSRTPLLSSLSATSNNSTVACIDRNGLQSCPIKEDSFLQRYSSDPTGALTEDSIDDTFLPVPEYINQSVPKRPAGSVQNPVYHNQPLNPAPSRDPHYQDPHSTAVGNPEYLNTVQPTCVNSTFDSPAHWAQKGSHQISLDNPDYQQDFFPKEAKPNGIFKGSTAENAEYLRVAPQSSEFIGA
Epidermal growth factor receptor (Homo sapiens, UniProt P00533), sequence (P00533 whole entry): as the sequence (P00533 whole entry, looked up, stated change not applied) above
RAC-alpha serine/threonine-protein kinase (Mus musculus), sequence (P31750 whole entry): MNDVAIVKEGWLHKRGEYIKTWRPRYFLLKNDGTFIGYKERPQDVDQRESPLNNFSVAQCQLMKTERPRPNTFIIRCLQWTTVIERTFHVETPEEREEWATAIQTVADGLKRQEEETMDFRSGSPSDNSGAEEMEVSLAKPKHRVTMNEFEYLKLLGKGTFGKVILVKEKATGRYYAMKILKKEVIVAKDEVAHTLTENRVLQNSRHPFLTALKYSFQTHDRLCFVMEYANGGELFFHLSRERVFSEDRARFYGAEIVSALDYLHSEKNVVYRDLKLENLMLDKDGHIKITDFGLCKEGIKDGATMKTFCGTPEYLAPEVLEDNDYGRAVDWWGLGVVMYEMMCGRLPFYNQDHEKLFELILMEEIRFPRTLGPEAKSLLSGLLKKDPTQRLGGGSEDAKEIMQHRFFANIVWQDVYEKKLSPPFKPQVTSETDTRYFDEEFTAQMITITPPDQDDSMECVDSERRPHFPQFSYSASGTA
T1 sequence (P63085 whole entry, looked up): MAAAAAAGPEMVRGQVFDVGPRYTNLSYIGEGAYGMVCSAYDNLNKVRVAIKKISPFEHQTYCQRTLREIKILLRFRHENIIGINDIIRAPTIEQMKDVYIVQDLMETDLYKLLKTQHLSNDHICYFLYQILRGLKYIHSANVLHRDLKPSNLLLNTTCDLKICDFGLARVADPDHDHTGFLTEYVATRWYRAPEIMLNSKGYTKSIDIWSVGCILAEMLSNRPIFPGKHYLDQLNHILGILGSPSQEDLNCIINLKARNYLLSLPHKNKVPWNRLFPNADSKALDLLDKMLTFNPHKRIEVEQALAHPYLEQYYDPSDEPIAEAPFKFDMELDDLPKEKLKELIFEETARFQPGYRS
T1 sequence (Q63844 whole entry, looked up): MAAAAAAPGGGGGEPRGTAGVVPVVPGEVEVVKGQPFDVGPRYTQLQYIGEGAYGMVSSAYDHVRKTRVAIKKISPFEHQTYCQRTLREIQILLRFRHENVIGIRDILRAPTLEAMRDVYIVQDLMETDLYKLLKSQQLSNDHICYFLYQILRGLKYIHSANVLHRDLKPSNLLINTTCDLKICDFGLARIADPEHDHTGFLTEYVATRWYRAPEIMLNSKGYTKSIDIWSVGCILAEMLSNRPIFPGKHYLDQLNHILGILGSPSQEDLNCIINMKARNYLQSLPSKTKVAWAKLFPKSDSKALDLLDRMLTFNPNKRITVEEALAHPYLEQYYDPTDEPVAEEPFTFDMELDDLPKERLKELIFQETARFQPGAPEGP

Row | SMILES | IC50 [1] [nM] | IC50 [2] [nM] | IC50 [15] [nM] | other results
1 | COc1cc2ncnc3c2cc1OCCOCCOc1c(Cl)cccc1N3 | 509 | – | – | –
2 | COc1cc2ncnc3c2cc1OCCOCCOc1cccc(c1)N3 | 33900 | – | – | –
3 | COc1cc2ncnc3c2cc1OCCOCCOc1cc(Cl)ccc1N3 | – | > 100000 | – | –
4 | C=CC(=O)Nc1cc(Nc2ncc(C(=O)OC(C)C)c(-c3cn(C)c4ccccc34)n2)c(OC)cc1N(C)CCN(C)C [MOBOCERTINIB] | – | – | – | IC50 (BaF3 [3]): 5 nM; IC50 (BaF3 [4]): 1060 nM; IC50 (BaF3 [5]): 9 nM; IC50 (BaF3 [6]): 10.1 nM; IC50 (BaF3 [7]): 8.3 nM; IC50 (BaF3 [8]): 1.9 nM; IC50 (BaF3 [9]): 1130 nM; IC50 (BaF3 [10]): 27.1 nM; IC50 (BaF3 [11]): 2170 nM; IC50 (BaF3 [12]): 8.9 nM; IC50 (BaF3 [13]): 3810 nM; IC50 (BaF3 [14]): 47.6 nM
5 | COc1cc2ncnc3c2cc1OCCCCCCOc1cc(F)c(Cl)cc1N3 | 235 | > 100000 | 655 | –
6 | Fc1cc2c(cc1Cl)Nc1ncnc3ccc(cc13)OCCOCCO2 | 1030 | – | – | IC50 (BaF3 [3]): 3100 nM; IC50 (BaF3 [4]): 2760 nM; IC50 (BaF3 [8]): 5360 nM
7 | COc1cc2ncnc3c2cc1OCCCCCCOc1c(Cl)cccc1N3 | 3030 | – | > 100000 | –
8 | COc1cc2ncnc3c2cc1OCCOCCOCCOc1cc(F)c(Cl)cc1N3 | 1.3 | > 100000 | 2.8 | inhibition [16]: Active; inhibition [17]: Active; inhibition [18]: Active; inhibition [19]: Active; inhibition [20]: Active; inhibition [21]: Active; inhibition [22]: Active; inhibition [23]: Active; inhibition [24]: Active
9 | COc1cc2ncnc3c2cc1OCCCCCCOc1ccc(Cl)cc1N3 | 19.6 | > 100000 | 739 | –
10 | COc1cc2ncnc3c2cc1OCCCCCCOc1cc(Cl)ccc1N3 | 63500 | > 100000 | > 100000 | –
11 | COc1cc2ncnc3c2cc1OCCCCCCOc1ccccc1N3 | 491 | – | – | –
12 | COc1cc2ncnc3c2cc1OCCOCCOc1cc(ccc1Cl)N3 | 493 | – | 1120 | –
13 | COc1cc2ncnc3c2cc1OCCOCCOc1cc(F)c(Cl)cc1N3 | – | – | – | inhibition (BaF3 [25]): Active; inhibition (BaF3 [26]): Active; inhibition (BaF3 [27]): Active; solubility at 24 h [28]: 0.131 µg/mL (≈ 0.323 µM); solubility at 24 h [29]: 0.283 µg/mL (≈ 0.697 µM); solubility [30]: 2592 µg/mL (≈ 6390 µM); residual activity [31]: 5%; residual activity [32]: 25%; residual activity (Homo sapiens): 26%; residual activity [33]: 33%
14 | COc1cc2ncnc3c2cc1OCCOCCOc1ccccc1N3 | 155 | > 100000 | 685 | IC50 [34]: 1680 nM
15 | COc1cc2ncnc3c2cc1OCCOCCOCCOc1ccc(Cl)cc1N3 | 0.3 | > 100000 | 0.7 | inhibition [16]: Active; inhibition [17]: Active; inhibition [18]: Active; inhibition [19]: Active; inhibition [20]: Active; inhibition [21]: Active; inhibition [22]: Active; inhibition [23]: Active; inhibition [24]: Active
16 | COc1cc2ncnc3c2cc1OCCCCCCOc1cccc(Cl)c1N3 | 56.8 | > 100000 | 275 | –
17 | COc1cc2ncnc3c2cc1OCCOCCOc1ccc(Cl)c(c1)N3 | 70400 | > 100000 | 19900 | –
18 | COc1cc2ncnc3c2cc1OCCOCCOCCOc1ccccc1N3 | 1870 | > 100000 | 87.6 | –
19 | COc1cc2ncnc3c2cc1OCCOCCOCCOc1cccc(Cl)c1N3 | 42.9 | > 100000 | 32.6 | –
20 | COc1cc2ncnc3c2cc1OCCOCCOCCOc1cc(Cl)ccc1N3 | 16.2 | > 100000 | 38.3 | –
21 | COc1cc2ncnc3c2cc1OCCOCCOc1cc(Cl)cc(c1)N3 | 6300 | – | – | –
22 | COc1cc2ncnc3c2cc1OCCOCCOc1ccc(Cl)cc1N3 | 24.9 | > 100000 | 128 | –
